This is an account of results in patent US20230301966A1, “METHOD OF ENHANCING 5-HYDROXYTRYPTOPHAN (5-HTP) EXPOSURE” (Evecxia Therapeutics, Inc., priority 2021, published 2023).

Structures are written as SMILES. Where two headings read alike, the source gives them in different places.

The Tmax is the time at which the peak concentration occurs. Usually half-life stands for how long it takes for the measured level to halve.

The conditions of series [1]: cited from earlier work.
The conditions of series [2]: cited from earlier work. The source holds these as a separate data set.
Series [3] is described as follows: PK simulation to steady-state at twice-daily dosing by non-parametric superposition (NPS). The note with it: plasma 5-HTP, steady-state at twice-daily administration. Details: species or system human. The source says:
Given this T½ for 5-HTP and the known metabolism of 5-HTP by AAAD, non-parametric superpositioning (NPS) pharmacokinetic modeling can be applied to predict steady-state 5-HTP plasma exposure. NPS is an established method known in the field to generally predict steady-state plasma levels of an active pharmaceutical compound. NPS assumes that each dose of an active pharmaceutical compound is metabolized independently of other doses; that the rate and extent of absorption and average systemic clearance are the same for each dosing interval; and that linear pharmacokinetics apply. Based on NPS, the steady-state 5-HTP plasma exposure would be expected to be about 0.25-fold higher (to total about 1.25-fold) than that observed after single-administration. Further, given the T½, steady-state plasma exposure would, according to standard assumptions, be expected to be reached within 5-6 half-lives, i.e., about 1 day.
Plasma pharmacokinetics parameters were estimated using standard Phoenix WinNonlin methods. Data are presented as geometric mean ± SEM. The 5-HTP plasma profiles after single tablet administration of “fast” 5-HTP (250 mg) / low-dose carbidopa (15 mg) tablets following either an FDA high-fat high-calorie meal versus after an FDA moderate-fat, moderate-calorie meal are shown in FIG. 6B. […]

The nature of series [4]: Single-dose pharmacokinetic evaluation of gastroretentive tablets in human healthy volunteers (Example 5). In kind it is in vivo. The note with it: plasma, oral, 250 mg, single administration, high-fat meal. The method, then:
The “fast” 5-HTP (250 mg) / low-dose carbidopa (0.625 mg, 2.5 mg, 5 mg, or 15 mg) gastroretentive tablets were administered orally to subjects from a cohort totaling 16 healthy subjects in a 5-period open label pharmacokinetics study. The subjects’ mean age was ~50 years (33 to 60 years). All were Caucasian, 11 males, 5 females. Average weight was ~80 kg and all body mass index (BMI) < 32.0 kg/m^2. The subjects were admitted to a clinic during the study. The swelling layer of the tablets was radiolabelled with ≤1 MBq ^111In to allow for parallel scintigraphic location of the tablets in the gastrointestinal tract. The tablets were administered in the morning, one tablet per administration, after ingestion of≥80% of the breakfast. Tablets were administered with 210 mL water followed by a radiolabelled drink (radiocontrast) containing NMT 4 MBq technetium-99m-diethylene triaminepentaacetic acid (99mTc-DTPA) in 30 mL of water. […]
In the first 4 periods, the tablets were administered after a standardized FDA high-fat, high-calorie meal (FDA, 2022), in order of increasing doses of carbidopa. […] The 5-HTP and carbidopa in the plasma were analyzed by liquid-chromatography-mass spectrometry. […]
Carbidopa plasma was below lower limit of quantification (1 ng/ml) at all timepoints at the 0.625 mg carbidopa dose strength, and for most time points at the 2.5 mg carbidopa dose strength. […]

Series [5] is described as follows: Excipient compatibility of 5-HTP and carbidopa blends, storage at 40° C. The conditions noted are these: for 5-HTP Impurities at T= 1 month (%) Total / Carbidopa Impurities at T= 1 month (%) Total / 5-HTP Impurities at T= 1 month (%) LSI / Carbidopa Impurities at T= 1 month (%) LSI: 1 month at 40° C; for 5-HTP Impurities at T=7 (%) Total / Carbidopa Impurities at T=7 (%) Total / 5-HTP Impurities at T=7 (%) LSI / Carbidopa Impurities at T=7 (%) LSI: 7 days at 40° C; for 5-HTP Impurities at T= 1 month (%) LSI / Carbidopa Impurities at T= 1 month (%) LSI / 5-HTP Impurities at T=7 (%) LSI / Carbidopa Impurities at T=7 (%) LSI / 5-HTP Impurities at T=0 (%) LSI / Carbidopa Impurities at T=0 (%) LSI: largest single impurity. In kind it is physicochemical. On the procedure:
Excipient compatibility studies were performed to examine the stability of 5-HTP and carbidopa mixed together, either the two APIs alone or in the presence of one or two excipients. The stability (assay and level of impurities) was tested using small aliquots of 5-HTP (300 mg) and carbidopa (25 mg) blended together, with or without together excipients. The API/excipient ratios were based on the approximate composition of gastroretentive tablets of 5-HTP and carbidopa in Table 1. There were no significant increases in the levels of impurities for any of the API/excipient(s) combinations at T=0, 7 days and 1 month of storage at 40° C. The maximum percentage increase (largest single impurity) for carbidopa was 0.44%, 0.55%, and 0.86% at T=0, 7 days and 1 month, respectively. The maximum percentage increase for 5-HTP was 0.27%, 0.48%, and 0.49% at T=0, 7 days and 1 month, respectively.

`N[C@@H](Cc1ccc(O)c(O)c1)C(=O)O` [L-DOPA]: in series [1] (L-DOPA/carbidopa therapy, 600-1200 mg/day and 120-150 mg/day), the “time for L-DOPA plasma exposure to reach steady-state” value is “less than 12 h”.
Take `N[C@@H](Cc1c[nH]c2ccc(O)cc12)C(=O)O` [Sample 5-HTP, 5-hydroxytryptophan]: the aqueous solubility in series [2] is listed as ~ 15 mg/ml. Besides, in series [3], the “Relative steady-state average plasma exposure (average ng/ml gastroretentive /average ng/ml immediate release)” value is reported as 1. For the same compound, the 5-HTP plasma exposure in series [1] (200 mg/day carbidopa with 1,150-2,900 mg/day 5-HTP, separate IR dosage forms, after 8-54 months (Magnussen and Van Woert, 1982b)) was 2,000-10,000 ng/ml. For the same compound, in series [1] (native 5-HTP immediate release), the Tmax is recorded as ~ 1 h and the “half-life T½” value was ~ 2 h. Moreover, in series [1] (native 5-HTP immediate release, one study (WO2019245925)), the oral bioavailability was ~ 20%. Also, in series [1] (one study (WO2019245925)), the “bioavailability in the colon” value is ~ 4% and the “bioavailability in the upper intestine” value was ~ 20%. Further, the half-life in series [4] (read-out: Elimination half-life (Average) 5-HTP (converted)) was 2.9 h. In addition, the Tmax in series [4] (read-out: TMax (Average) 5-HTP) came to 1 h.
In the case of `N[C@@H](Cc1c[nH]c2ccc(O)cc12)C(=O)O` [Sample 17, 5-HTP (control)], in series [5], the “5-HTP Impurities at T= 1 month (%) Total” value amounted to 0.26%, the “Carbidopa Impurities at T= 1 month (%) Total” value is 0.00%, the “5-HTP Impurities at T=7 (%) Total” value worked out at 0.23% and the “Carbidopa Impurities at T=7 (%) Total” value is given as 0.00%. For the same compound, in series [5], the “5-HTP Impurities at T=0 (%) Total” value stood at 0.23%, the “Carbidopa Impurities at T=0 (%) Total” value is on record as 0.00%, the “5-HTP Impurities at T= 1 month (%) LSI” value is on record as 0.12% and the “Carbidopa Impurities at T= 1 month (%) LSI” value came out at 0.00%. Further, in series [5], the “5-HTP Impurities at T=7 (%) LSI” value is listed as 0.12%, the “Carbidopa Impurities at T=7 (%) LSI” value was found to be 0.00%, the “5-HTP Impurities at T=0 (%) LSI” value was 0.13% and the “Carbidopa Impurities at T=0 (%) LSI” value is 0.00%.
Take `C[C@@](Cc1ccc(O)c(O)c1)(NN)C(=O)O` [Sample 18, Carbidopa (control)]: in series [5], the “5-HTP Impurities at T= 1 month (%) Total” value came out at 0.00%, the “Carbidopa Impurities at T= 1 month (%) Total” value was determined as 0.79%, the “5-HTP Impurities at T=7 (%) Total” value is 0.00% and the “Carbidopa Impurities at T=7 (%) Total” value was 0.45%. In series [5], the “5-HTP Impurities at T=0 (%) Total” value is given as 0.00%, the “Carbidopa Impurities at T=0 (%) Total” value is reported as 0.41%, the “5-HTP Impurities at T= 1 month (%) LSI” value turned out to be 0.00% and the “Carbidopa Impurities at T= 1 month (%) LSI” value is 0.27%. In series [5], the “5-HTP Impurities at T=7 (%) LSI” value was 0.00%, the “Carbidopa Impurities at T=7 (%) LSI” value amounted to 0.28%, the “5-HTP Impurities at T=0 (%) LSI” value stood at 0.00% and the “Carbidopa Impurities at T=0 (%) LSI” value was 0.27%.
As to `C[C@@](Cc1ccc(O)c(O)c1)(NN)C(=O)O` [carbidopa], in series [2], the aqueous solubility was ~ 1.5 mg/ml. For the same compound, the T½ in series [1] (known value) is 1 to 2 h.
